# Source: PubChem BioAssay (NCI)
#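 Each compound was tested at five concentrations against cells in 96-well plates for 48 hours. GI50 marks 50% less growth. TGI marks complete inhibition of growth.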
# Assays:
# Test in all cases: inhibition of tumour cell growth, NCI panel, 48 h
# HOP-62 NSCLC = tested on: HOP-62 NSCLC
# COLO 205 colon = tested on: COLO 205 colon
# TK-10 renal = tested on: TK-10 renal
# SF-539 CNS = tested on: SF-539 CNS
# A549 NSCLC = tested on: A549 NSCLC
# SNB-75 CNS = tested on: SNB-75 CNS
# ACHN renal = tested on: ACHN renal
# SK-MEL-28 melanoma = tested on: SK-MEL-28 melanoma
# SR leukemia = tested on: SR leukemia
# T-47D breast = tested on: T-47D breast
SMILES,TGI (HOP-62 NSCLC),TGI (COLO 205 colon),TGI (TK-10 renal),TGI (SF-539 CNS),TGI (A549 NSCLC),TGI (SNB-75 CNS),TGI (ACHN renal),TGI (SK-MEL-28 melanoma),GI50 (COLO 205 colon),GI50 (TK-10 renal),GI50 (SF-539 CNS),GI50 (SR leukemia),TGI (SR leukemia),GI50 (A549 NSCLC),GI50 (SNB-75 CNS),GI50 (ACHN renal),GI50 (SK-MEL-28 melanoma),GI50 (HOP-62 NSCLC),GI50 (T-47D breast),TGI (T-47D breast)
NC(=O)NNC(=O)NC12CC3CC(CC(C3)C1)C2,> 100 µM,> 100 µM,> 100 µM,> 100 µM,> 100 µM,> 100 µM,> 100 µM,> 100 µM,–,–,–,–,–,–,–,–,–,–,–,–
COc1ncnc(NS(=O)(=O)c2ccc(N=C3C(=O)N(CN4CCN(c5c(F)cc6c(=O)c(C(=O)O)cn(C7CC7)c6c5OC)CC4C)c4ccc(Br)cc43)cc2)c1OC (centres undefined),–,39.9 µM,> 50 µM,22.1 µM,> 50 µM,> 50 µM,> 50 µM,> 50 µM,10.8 µM,2.47 µM,7.53 µM,42.7 µM,> 50 µM,4.78 µM,> 50 µM,22.5 µM,> 50 µM,–,–,–
N#CC(c1ccccn1)c1nc2ccccc2[nH]1 (centres undefined),> 100 µM,> 100 µM,> 100 µM,–,> 100 µM,> 100 µM,> 100 µM,> 100 µM,–,–,–,–,> 100 µM,–,–,–,–,–,–,–
O=C(O)/C=C/c1nc2ccccc2c(=O)o1,–,> 100 µM,> 100 µM,> 100 µM,> 100 µM,> 100 µM,> 100 µM,> 100 µM,–,–,–,–,–,–,–,–,–,–,–,–
Cc1cc(C)nc(NS(=O)(=O)c2ccc(Nc3c4ccccc4nc4c(C(=O)Nc5ccc(S(=O)(=O)N=C(N)N)cc5)cccc34)cc2)n1,> 100 µM,> 100 µM,> 100 µM,> 100 µM,> 100 µM,88.5 µM,> 100 µM,> 100 µM,–,–,–,–,–,–,–,–,–,–,–,–
O=S(=O)(/C=C/C(=C/c1ccccc1)S(=O)(=O)c1ccccc1)c1ccccc1,3.5 µM,4.31 µM,3.24 µM,3.15 µM,4.65 µM,3.43 µM,3.14 µM,2.8 µM,–,–,–,–,4.41 µM,–,–,–,–,–,–,–
Cc1ccc(-c2nc([P+](c3ccccc3)(c3ccccc3)c3ccccc3)c(S(=O)(=O)c3ccc(C)cc3)o2)cc1,4.56 µM,4.28 µM,3.27 µM,2.92 µM,5.14 µM,4.41 µM,2.78 µM,3.09 µM,1.71 µM,1.73 µM,1.58 µM,–,–,2 µM,1.21 µM,1.46 µM,1.7 µM,1.47 µM,1.99 µM,5.23 µM
O=C(CCC1C(=O)NC(=S)NC1=O)c1ccc2ccccc2c1,> 100 µM,> 100 µM,> 100 µM,> 100 µM,> 100 µM,> 100 µM,> 100 µM,> 100 µM,–,–,–,–,> 100 µM,–,–,–,–,–,–,–
CC1(c2ccccc2Cl)C(C#N)C(=O)NC(=O)C1C#N (centres undefined),> 100 µM,> 100 µM,> 100 µM,> 100 µM,> 100 µM,75.4 µM,> 100 µM,> 100 µM,–,–,–,–,–,–,–,–,–,–,–,–
CC(C)=CC(=O)N(C)C1C2CN3CCC(O2)C13 (centres undefined),> 100 µM,> 100 µM,> 100 µM,> 100 µM,> 100 µM,> 100 µM,> 100 µM,> 100 µM,–,–,–,–,–,–,–,–,–,–,–,–
CCN(CC)c1ccc2c(c1)Oc1ccc(N(CC)CC)cc1C21Oc2ccccc2-c2c1c1ccccc1n2CC (centres undefined),–,> 100 µM,–,–,> 100 µM,> 100 µM,> 100 µM,> 100 µM,–,–,–,–,> 100 µM,–,–,–,–,–,–,–
C(=N/N(Cc1ccccc1)Cc1ccccc1)/c1ccccc1,> 100 µM,> 100 µM,> 100 µM,> 100 µM,> 100 µM,> 100 µM,> 100 µM,> 100 µM,> 100 µM,> 100 µM,> 100 µM,–,–,> 100 µM,> 100 µM,> 100 µM,> 100 µM,> 100 µM,72.4 µM,> 100 µM
Cc1nc(C(=O)O)c2ccccc2n1,–,> 100 µM,> 100 µM,> 100 µM,> 100 µM,> 100 µM,> 100 µM,> 100 µM,–,–,–,–,> 100 µM,–,–,–,–,–,–,–
C[N+](C)(C)CC1CCCC1=O (centres undefined),> 68 µM,2.99 µM,6.76 µM,6.05 µM,35.7 µM,7.98 µM,9.94 µM,3.72 µM,–,–,–,–,–,–,–,–,–,–,–,0.448 µM
COC1C(O)C(CO)OC(OC2C(O)COC(OC3C(C)OC(OC4C(O[C@H]5CC[C@@]6(C)C(CC=C7[C@H]6CCC68C(=O)O[C@@](C)(CCCC(C)C)[C@H]6[C@@H](OC(C)=O)C[C@@]78C)C5(C)C)OCC(OS(=O)(=O)O)C4O)C(OC4OCC(O)C(O)C4O)C3O)C2O)C1O (some centres undefined),–,0.286 µM,0.855 µM,0.606 µM,0.209 µM,0.465 µM,0.298 µM,2.14 µM,0.0738 µM,0.333 µM,0.215 µM,0.0628 µM,0.238 µM,0.0568 µM,0.214 µM,0.149 µM,0.495 µM,–,0.2 µM,0.529 µM
C=CNC(=O)NC(=O)CSc1nnc(-c2ccccc2NC(=O)C(F)(F)F)c(=O)[nH]1,> 100 µM,> 100 µM,> 100 µM,> 100 µM,> 100 µM,0.968 µM,–,> 100 µM,–,–,–,–,> 100 µM,–,–,–,–,–,–,–
CC12CCC(=O)N1c1ccc([N+](=O)[O-])cc1N2 (centres undefined),> 100 µM,> 100 µM,–,> 100 µM,> 100 µM,> 100 µM,> 100 µM,> 100 µM,–,–,–,–,> 100 µM,–,–,–,–,–,–,–
O=C(c1nc2ccccc2[nH]c1=O)C(O)c1ccccc1 (centres undefined),> 100 µM,> 100 µM,> 100 µM,> 100 µM,> 100 µM,–,> 100 µM,> 100 µM,–,–,–,–,> 100 µM,–,–,–,–,–,–,–
COc1cc2c(cc1OC)-c1ncc3c(OC)c(OC)c(OC)cc3c1C2,29.4 µM,> 100 µM,50.4 µM,–,40.7 µM,> 100 µM,43.8 µM,> 100 µM,> 100 µM,18.9 µM,–,0.609 µM,2.47 µM,19.1 µM,28.9 µM,16.7 µM,> 100 µM,16 µM,40.8 µM,> 100 µM
CC(=O)OCCOCNC(=S)N/N=C/c1cc(Br)cs1,> 100 µM,> 100 µM,> 100 µM,> 100 µM,> 100 µM,> 100 µM,> 100 µM,> 100 µM,–,–,–,–,> 100 µM,–,–,–,–,–,–,–
